Measurements from PMC6960228, “Ethoxysanguinarine, a Novel Direct Activator of AMP-Activated Protein Kinase, Induces Autophagy and Exhibits Therapeutic Potential in Breast Cancer Cells” (Frontiers in Pharmacology, 2020).

Experiments:
[1] = system: LC3 redistribution to autophagosomes in BC cells; assay: GFP-LC3 autophagy assay (confocal microscopy); assay type: cell-based, human; conditions: pQCXIP-GFP-LC3 transfected cells, Eth 24 h
Description: The cells were transfected with pQCXIP-GFP-LC3 plasmid using the Lipofectamine 3000 (Invitrogen; Thermo Fisher Scientific, Inc.) according to the recommended protocol by the manufacturer and then fixed in 4% paraformaldehyde. The percentage of cells with fluorescent dots representing GFP-LC3 translocation was counted. For visualization of cell nucleus, DAPI was used. Sections were observed using an Olympus laser scanning confocal microscope with imaging software (Olympus Fluoview FV-1000, Tokyo, Japan).
Figure 2 Eth induces autophagy in BC cells. (A): MCF-7, MDA-MB-231, or MDA-MB-436 cells were treated with increasing concentrations of Eth for 24 h. Western blot was performed using antibodies indicated. GAPDH was used as the loading control. (B): MCF-7 (MDA-MB-231 or MDA-MB-436) cells were treated with 2.4 µM (2.0 µM or 2.0 µM) Eth for the indicated times, and cell lysates were subjected to western blot assay. (C): MCF-7, MDA-MB-231, or MDA-MB-436 cells transfected with pQCXIP-GFP-LC3 plasmid were treated with increasing concentrations of Eth for 24 h, and assessed by immunoﬂuorescence analyses. Scale bar = 20 µm. (D): MDA-MB-231 or MDA-MB-436 cells transfected with pQCXIP-GFP-LC3 plasmid were treated with Eth (2.0 µM) and/or 3-MA (1 mM) for 24 h, and assessed by immunoﬂuorescence analyses. Scale bar = 20 µm. […] (F): MCF-7, MDA-MB-231, or MDA-MB-436 cells were treated with Eth (3.5 µM, 3.0 µM, or 3.0 µM) and/or 3-MA (1 mM) for 24 h and analyzed by MTT assay. (G): MCF-7, MDA-MB-231, or MDA-MB-436 cells were treated with Eth (2.4 µM, 2.0 µM, or 2.0 µM) and/or 3-MA (1 mM) for 24 h, and western blot was performed using antibodies indicated. *P < 0.05.
Figure 3 Eth induces autophagy through the AMPK/mTORC1 signaling. […] (D): MDA-MB-231 or MDA-MB-436 cells transfected with pQCXIP-GFP-LC3 plasmid were treated with Eth (2.0 µM) and/or CC (25 µM) for 24 h, and assessed by immunoﬂuorescence analyses. […] (G): MDA-MB-231 or MDA-MB-436 cells transfected with pQCXIP-GFP-LC3 plasmid were treated with Eth (1.0 µM or 1.6 µM) and/or Met (10 mM) for 24 h, and assessed by immunoﬂuorescence analyses. […]

[2] = system: MCF-7 xenografted and MDA-MB-231 xenografted murine models; assay: Xenograft studies; assay type: in vivo, nude mice
Description: Female nude immunodeficient mice (nu/nu) (weighing ~16 g, 5-week-old) were purchased from Hunan SJA Laboratory Animal Co., Ltd. (Changsha, China), and maintained under specific pathogen-free conditions. Mice were given free access to sterile water and to a standard diet, and maintained under controlled conditions of temperature (22–24°C), humidity (40–70%), and light (12 h light-dark cycles). The present study was approved by Animal Ethics Committee of Hubei University of Medicine. The mice were subcutaneously injected with human BC MDA-MB-231 cells (5 × 10^6 cells which were suspended in 100 μL DMEM) into the right flank of each mouse. Treatments started when tumors reached a palpable size (0.5 cm in diameter). Mice were randomly divided into the following two groups: control group (vehicle; 0.8% DMSO, 12% cremophor, and 8% ethanol in normal saline; n = 8) and Eth-treated group (intraperitoneal injection of […] Eth; n = 8). The mice were treated 5 times per week for a total of […]. Caliper measurements of the longest perpendicular tumor diameters were performed twice a week to estimate the tumor volume, using the following formula: 4π/3 × (width/2)^2 × (length/2), representing the three-dimensional volume of an ellipse. Animals were sacrificed when tumors reached 1.5 cm or if the mice appeared moribund to prevent unnecessary morbidity to the mice.
To determine the anti-tumor effect of Eth on BC in vivo, MCF-7 xenografted and MDA-MB-231 xenografted murine models were generated. Once the tumors grew to a measurable size, each group was administered with vehicle (MCF-7 = 8, MDA-MB-231 = 8) or Eth (MCF-7 = 8; MDA-MB-231 = 8) i.p. at 2 mg/kg four times a week for 4 weeks. The tumor-bearing mice were humanely killed when their tumors reached 1.5 cm in diameter or when paralysis or major compromise in their quality of life occurred. […]
(A–B): Murine models were treated with vehicle, Eth (2 mg/kg) and the tumor volumes were calculated twice a week. **P < 0.01. […] (H–I): The expressions of LC3-II, AMPKα, and pAMPKα in xenograft tumor tissues were analyzed by western blot. […]

CCOC1c2c(ccc3c2OCO3)-c2ccc3cc4c(cc3c2N1C)OCO4 (stereo not shown) [Eth, Ethoxysanguinarine]
GFP-LC3 staining pattern [1]: speckled fluorescent staining pattern | tumor weight ([2]; i.p. 2 mg/kg four times a week for 4 weeks): significantly reduced the tumor weight | tumor growth compared with vehicle control ([2]; i.p. 2 mg/kg four times a week for 4 weeks, P < 0.05): efficiently repressed tumor growth | expression levels of pAMPK and LC-3II in tumor specimens ([2]; western blot of xenograft tumors): upregulated
